Data reported in ChEMBL document CHEMBL1201862, “PubChem BioAssay data set” (2004).
Activity calls are given as the source filed them. No stated cut-off is given here; in the data, actives have a measured IC50 and inactives only a lower limit.

Target: Envelope glycoprotein gp160 (Human immunodeficiency virus 1, UniProt Q6QLK5)
Assay: cell-free HIV fusion peptide-binding blockers – biochemical, uHTS, fluorescence dequenching, […] (AID 1986)

Chain of Envelope glycoprotein gp160 (Q6QLK5 whole entry, the tested form may be a part): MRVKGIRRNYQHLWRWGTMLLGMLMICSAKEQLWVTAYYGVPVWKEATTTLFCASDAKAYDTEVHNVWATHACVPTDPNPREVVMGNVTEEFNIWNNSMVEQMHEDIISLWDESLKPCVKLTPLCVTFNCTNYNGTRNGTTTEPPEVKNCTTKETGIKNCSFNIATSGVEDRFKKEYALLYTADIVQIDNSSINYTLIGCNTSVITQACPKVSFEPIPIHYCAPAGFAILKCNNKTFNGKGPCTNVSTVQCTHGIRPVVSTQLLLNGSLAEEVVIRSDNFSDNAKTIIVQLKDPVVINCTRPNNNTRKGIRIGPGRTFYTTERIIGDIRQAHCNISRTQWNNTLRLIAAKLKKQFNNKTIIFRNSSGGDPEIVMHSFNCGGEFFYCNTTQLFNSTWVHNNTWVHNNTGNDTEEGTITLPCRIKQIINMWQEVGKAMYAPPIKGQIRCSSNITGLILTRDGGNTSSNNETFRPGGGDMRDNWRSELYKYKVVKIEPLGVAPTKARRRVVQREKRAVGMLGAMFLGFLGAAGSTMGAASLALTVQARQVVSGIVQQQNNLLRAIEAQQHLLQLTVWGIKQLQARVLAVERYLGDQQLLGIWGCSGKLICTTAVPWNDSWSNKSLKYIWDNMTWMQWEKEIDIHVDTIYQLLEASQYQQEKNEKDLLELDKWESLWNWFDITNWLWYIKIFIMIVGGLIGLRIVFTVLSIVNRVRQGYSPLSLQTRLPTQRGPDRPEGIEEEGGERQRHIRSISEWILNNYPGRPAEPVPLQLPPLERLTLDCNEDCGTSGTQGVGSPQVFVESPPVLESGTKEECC

Row | Structure (SMILES) | IC50
1 | O=C(O)CSc1cc(C(=O)c2cc(F)ccc2O)cn2c(=O)c3c(-c4ccccc4)csc3nc12 | 14.9 µM (active)
2 | N#Cc1c(-c2cccs2)nc(SCc2ccc(Cl)cc2)[nH]c1=O | 11.1 µM (active)
